Source: patent US20200171056A1, “SULFONYLUREA COMPOUNDS IN THE TREATMENT OF DISEASE ASSOCIATED WITH UV-INDUCED DAMAGE” (CeMM - Forschungszentrum für Molekulare Medizin GmbH, priority 2017, published 2020)

Key:
Type in all cases: cell-based, human
[1] = tested on: ΔXPA cells; experiment: Short-term survival after UV irradiation (CellTiter-Glo); settings: 0.5 mM acetohexamide for 6 hours, then UV; survival after 3 days (FIG. 1D)
Text: A. Schematic representation of the experimental setup used to perform the high-throughput drug screen, where drugs were used at five-times maximal plasma concentration (CLOUD; CeMM library of unique drugs). B. Bubble plot displaying the drugs used plotted against cell viability. Light grey bubbles indicate wildtype (WT) cells, dark grey bubbles indicate XPA-deficient cells (ΔXPA). […] C. Chemical structure of acetohexamide. D. Dose-response curve of WT and ΔXPA cells treated with or without 0.5 mM acetohexamide for 6 hours, followed by UV irradiation. Survival was assessed after 3 days, using CellTiter-Glo. […] Error bars indicate SEM (n=3). E. Colony formation using the same conditions indicated in (D), where cells were kept in culture for 10 days following UV irradiation, following which they were fixed and stained.
A-C. Cell viability of ΔXPA cells treated with different concentrations of acetohexamide (aceto), gliclazide (GLC) and glimepiride (GLM) for 6 hours, followed by 10 J/M^2 of UV irradiation. D. Survival of WT and ΔXPA cells treated with or without 50 μM glibenclamide for 6 hours, followed by UV exposure. Survival was assessed after 3 days using CellTitre-Glo. E. Cell viability of ΔXPA cells treated with 10 μM of different derivatives of acetohexamide for 6 hours, followed by UV irradiation with 5 J/M^2.
For UV irradiation, cells were washed with PBS, trypsinized, counted and distributed in equal number then irradiated with different doses of UV as indicated. Finally, 1,000 cells were re-distributed into 96 well plates. After 72 hours, survival was measured using Cell Titer-Glo (Promega). Cells were irradiated with UVC using the UVP CX-2000 device (254 nm, Fisher Scientific).

[2] = tested on: XPA^Δ/Δ patient-derived cells; experiment: Colony formation of XPA patient-derived fibroblasts after UV irradiation; settings: 0.5 mM acetohexamide for 6 hours, then UV; 10 days (FIG. 2B)
Experimental: A. Dose-response curve of WT and ΔXPA cells treated with or without 0.5 mM acetohexamide for 6 hours, followed by illudin S treatment. Survival was assessed after 3 days using CellTiter-Glo. B. Colony formation of WT fibroblasts (BJ) and XPA-patient derived fibroblasts (XPA^Δ/Δ) treated with or without 0.5 mM acetohexamide for 6 hours, followed by UV irradiation (as indicated) and then kept in culture for 10 days. C. WT BJ and XPA^Δ/Δ fibroblastoid cells were treated with 0.5 mM acetohexamide for 6 hours, irradiated with 15 J/M^2 and then fixed and immunostained with an anti-cyclobutane pyrimidine dimer (CPD) antibody at the indicated times. Nuclear DNA was counterstained with DAPI. Scale bar, 10 μm. D. Scatter plot displaying the quantification of CPD intensities per nucleus of WT and XPA^Δ/Δ cells in the presence or absence of 0.5 mM acetohexamide, of more than 100 cells. Red lines within each column represent median intensities. A.u.=arbitrary unit.
HAP1 cells were cultured in Iscove's Modified Dulbecco's Medium (Gibco). […]
Cells were treated with UV at different doses with or without drug pre-treatment and then seeded into 6-well plates, at a density of 1,000 cells/well, in duplicates for 2 weeks until visible colonies were formed. […] Next, the staining solution was removed and the wells were washed, imaged and quantified using CellProfiler.

[3] = tested on: SUR1 transcript; experiment: SUR1 mRNA expression by quantitative reverse transcription PCR; settings: ΔXPA cells, 0.5 mM for 6 hours, 15 J/M^2 UV (FIG. 9B)
Experimental: A. Fragments Per Kilobase Million (FPKM) for SUR1 and GAPDH in HAP1 WT cells compared, from RNA sequencing. B. mRNA expression of SUR1 transcript assessed by quantitative reverse transcription PCR in WT and ΔXPA cells with or without 0.5 mM acetohexamide treatment for 6 hours, followed by 15 J/M^2 UV irradiation and subsequent recovery as indicated. Expression of GAPDH was used as a reference. Error bars indicate SEM (n=3).
WT and ΔXPA HAP1 cells were harvested and RNA was isolated using phenol-chlorophorm extraction. After treatment with 1 μl DNase (Sigma), the cDNA was transcribed using SuperScript III Reverse Transcriptase (Invitrogen). An amount of 1 μg of cDNA template was used for the qRT-PCR using SYBR Green qPCR Mastermix (Qiagen). Analysis was performed in triplicates using GAPDH as a control gene. The PCR was performed on a 7900HT Fast Real-Time PCR System (Applied Biosystems). The following primers were used: […]

[4] = tested on: MUTYH-deficient (ΔMUTYH) cells; experiment: Survival of MUTYH-deficient cells after UV irradiation; settings: pre-incubation with 0.5 mM acetohexamide; 3 days (FIG. 3B)
Text: FIG. 3. Loss of MUTYH mimics acetohexamide function A. Bubble plot displaying the percentage of rescue, defined as the difference in survival of a given cell line treated with acetohexamide compared to untreated, following UV irradiation. The light grey, dark grey bubbles highlight ΔMUTYH, ΔXPA […], and black bubbles indicate the rest of the knockout cell lines and WT HAP1. The size of the bubbles indicates the significance as log10 (p-value). BER: base excision repair; NER: nucleotide excision repair; DSBR; double-strand break repair; MMR: mis-match repair; FA: Fanconi aneamia; DR; direct reversal; TLS; translesion synthesis. B. Survival of WT and MUTYH-deficient (ΔMUTYH) cells with or without 0.5 mM acetohexamide treatment, followed by UV irradiation, as assessed after 3 days using CellTitre-Glo. Loss of MUTYH protein was confirmed by immunoblotting using an anti-MUTYH antibody. ACTIN was used as a loading control. C. Deletion of MUTYH in WT HAP1 or an XPA-deficient background was confirmed by immunoblotting using an anti-MUTYH antibody. TUBULIN was used as a loading control. […]
For UV irradiation, cells were washed with PBS, trypsinized, counted and distributed in equal number then irradiated with different doses of UV as indicated. […] After 72 hours, survival was measured using Cell Titer-Glo (Promega). […]

SMILES: CC(=O)c1ccc(S(=O)(=O)NC(=O)NC2CCCCC2)cc1 [acetohexamide]
- UV sensitivity of ΔXPA cells, short-term dose response assay [1]: alleviated the UV sensitivity of ΔXPA cells almost to the level of wildtype cells
- UV-induced cell death of XPA^Δ/Δ patient-derived cells [2]: could alleviate UV-induced cell death of XPA^Δ/Δ patient-derived cells
- SUR1 expression [3]: not expressed
- survival of ΔMUTYH cells after UV [4]: did not have a noticeable effect on survival
